Target: T1, human CXCR2 receptor (Homo sapiens, UniProt P25025)
T1 construct: purchased Biosignal Packard Inc; host or cells: CHO-K1 membranes
T1 sequence (P25025 1-360): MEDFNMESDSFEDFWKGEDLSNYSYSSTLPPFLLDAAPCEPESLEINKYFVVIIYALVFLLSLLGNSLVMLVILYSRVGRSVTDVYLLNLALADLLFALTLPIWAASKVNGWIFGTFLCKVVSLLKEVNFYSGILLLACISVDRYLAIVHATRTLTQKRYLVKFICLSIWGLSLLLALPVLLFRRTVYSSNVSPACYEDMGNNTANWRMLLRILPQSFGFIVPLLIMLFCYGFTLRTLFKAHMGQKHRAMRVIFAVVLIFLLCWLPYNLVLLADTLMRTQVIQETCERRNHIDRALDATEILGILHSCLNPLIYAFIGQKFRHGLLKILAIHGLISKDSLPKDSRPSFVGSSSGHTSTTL
Experiment: [35S]-GTPγS binding assay for human CXCR2 receptor using SPA technology
Assay type: biochemical
Conditions: CHO-K1 membranes expressing human CXCR2 receptors; 100 nM IL-8 stimulated [35S]GTPγS binding; read-out: IC50 values in the [35S]-GPTγS binding assay
Text: [^35S]-GTPγS Binding Assay for Human CXCR2 Receptor Using SPA Technology
[^35S]-GTPγS (with specific activity 1082 Ci/mmol) and wheat germ agglutinin poly vinyl toluene scintillation proximity beads are purchased from Amersham Pharmacia Biotech. The Chinese hamster ovary cell (CHO-K1) membranes expressing human CXCR2 receptors are purchased from Biosignal Packard Inc. All other chemicals are of analytical grade. White non-binding surface 96 well Optiplate™ microplates are obtained from Packard. Recombinant human IL-8 is synthesised, cloned and expressed in Escherichia coli as described previously (Lindley I, et al., Proc. Natl. Acad. Sci., 1988, 85(23):9199). The assay is performed in duplicate in 96 well Optiplate™ microplate in a final volume of 250 μl per well. Compounds are diluted in DMSO (0.5% final concentration) and incubated in 20 mM HEPES buffer pH 7.4 containing 10 mM MgCl2, 100 mM NaCl, 1 mM EDTA plus 100 nM IL-8, 50 μM GDP and 500 pM [^35S]GTPγS per well. SPA beads (1 mg/well final concentration) were pre-mixed with the membranes (10 μg/well final concentration) in assay buffer: 20 mM HEPES buffer pH 7.4 containing 10 mM MgCl2, 100 mM NaCl, 1 mM EDTA. The bead membrane mixture is added to each well, plates are sealed and incubated at room temperature for 60 minutes. The plate is centrifuged and read on Packard TopCount™ scintillation counter, program [^35S dpm] for 1 min/well. Data are expressed as the % response to 100 nM IL-8 minus basal.

Row | SMILES | IC50 [nM]
1 | Cc1cc2nc(COc3ccccc3Cl)cc(O)n2n1 [Example 10, 5-(2-Chloro-phenoxymethyl)-2-methyl-pyrazolo[1,5-a]pyrimidin-7-ol] | 4890
2 | Oc1cc(CCc2ccccc2Cl)nc2cc(Cc3ccccc3)nn12 [Example 4, 2-Benzyl-5-[2-(2-chloro-phenyl)-ethyl]-pyrazolo[1,5-a]pyrimidin-7-ol] | 660
3 | Oc1cc(COc2cccnc2Cl)nc2cc(-c3ccco3)nn12 [Example 17, 5-(2-Chloro-pyridin-3-yloxymethyl)-2-furan-2-yl-pyrazolo[1,5-a]pyrimidin-7-ol] | 990
4 | Cc1cc2nc(CCc3ccccc3F)cc(O)n2n1 [Example 1, 5-[2-(2-Fluoro-phenyl)-ethyl]-2-methyl-pyrazolo[1,5-a]pyrimidin-7-ol] | 2970

Other lines, results leading:

Row | IC50 [nM] | SMILES
5 | 3830 | Oc1cc(COc2c(F)cccc2F)nc2cc(-c3ccco3)nn12 [Example 14, 5-(2,6-Difluoro-phenoxymethyl)-2-furan-2-yl-pyrazolo[1,5-a]pyrimidin-7-ol]
6 | 1740 | Oc1cc(COc2cccc(F)c2F)nc2cc(-c3ccco3)nn12 [Example 22, 5-(2,3-Difluoro-phenoxymethyl)-2-furan-2-yl-pyrazolo[1,5-a]pyrimidin-7-ol]
7 | 1770 | Oc1cc(COc2ccccc2Cl)nc2cc(-c3ccco3)nn12 [Example 23, 5-(2-Chloro-phenoxymethyl)-2-furan-2-yl-pyrazolo[1,5-a]pyrimidin-7-ol]
8 | 220 | Oc1cc(CCc2cccc(F)c2F)nc2cc(-c3ccco3)nn12 [Example 7, 5-[2-(2,3-Difluoro-phenyl)-ethyl]-2-furan-2-yl-pyrazolo[1,5-a]pyrimidin-7-ol]

— patent US20110009429A1, “HETEROCYCLIC COMPOUNDS AS INHIBITORS OF CXCR2” (priority 2008, published 2011)
